Assays:
[1] = pKa; assay type: physicochemical
[2] = tested on: P. berghei strain GFP ANKA; experiment: In vivo antimalarial activity, P. berghei infected malaria mouse model; parameters: species or system Plasmodium berghei (female NMRI mice)
[3] = In vivo pharmacokinetic studies in mice

**Q.** Which pKa ([1]; pKa1, first pKa) does the source give for `C[C@H]1Cc2c([nH]c3cc(Cl)ccc23)[C@@]2(N1)C(=O)Nc1ccc(Cl)cc12` [Compound 18a, (1R,3S)-5′,7-Dichloro-3-methyl-2,3,4,9-tetrahydrospiro[β-carboline-1,3′-indol]-2′(1′H)-one] here?
**A.** 5.2

**Q.** What about the pKa ([1]; pKa2, second pKa) of the same molecule?
**A.** 10.6

**Q.** With `C[C@H]1CCc2c([nH]c3ccccc23)[C@@]2(N1)C(=O)Nc1ccc(Br)cc12` [Compound 1a, (1R,3S)-5′-Bromo-3-methyl-3,4,5,10-tetrahydro-2H-spiro[azepino[3,4-b]indole-1,3′-indol]-2′(1′H)-one] as the molecule, how does the pKa ([1]; pKa1, first pKa) read?
**A.** 5.2

**Q.** With `C[C@H]1Cc2c([nH]c3ccc(F)cc23)[C@@]2(N1)C(=O)Nc1ccc(Cl)cc12` [Compound 17a, (1R,3S)-5′-Chloro-6-fluoro-3-methyl-2,3,4,9-tetrahydrospiro[β-carboline-1,3′-indol]-2′(1′H)-one] as the molecule, how does the pKa ([1]; pKa1, first pKa) read?
**A.** 4.8

**Q.** Which “full cure (no parasites at day 30)” value ([2]; 3 × 30 mg/kg oral doses) does the source give for `C[C@H]1Cc2c([nH]c3cc(F)c(F)cc23)[C@@]2(N1)C(=O)Nc1ccc(Cl)cc12` [Compound 20a, (1R,3S)-5′-Chloro-6,7-difluoro-3-methyl-2,3,4,9-tetrahydrospiro[β-carboline-1,3′-indol]-2′(1′H)-one] here?
**A.** four out of five mice

**Q.** And the “toxicity or behavioral changes after drug administration” value ([2]; treated mice, any dosing regimen)?
**A.** neither toxicity nor behavioral changes

**Q.** What about the “total systemic clearance relative to hepatic blood flow” value ([3]; mice, intravenous administration) of the same molecule?
**A.** ~10 % hepatic blood flow

**Q.** And the “exposure (AUC∞) greater than 9a” value ([3]; mice, oral, 20a vs 9a)?
**A.** 18 fold

**Q.** What about the half-life ([3]; mouse, plasma) of the same molecule?
**A.** 3 h

**Q.** And the pKa ([1]; pKa1, first pKa)?
**A.** 4.9

From publication PMC6996867 (Journal of Medicinal Chemistry, 2010)
